The record followed here is patent US20250059141A1, “TLR MODULATOR AND USE THEREOF” (DUALITY BIOLOGICS (SUZHOU) CO., LTD., priority 2021, published 2025).

For the first assay, the target named is T1, hTLR8 (human Toll-like receptor 8) (Homo sapiens, UniProt Q9NR97).
T1 construct: host or cells: HEK-Blue hTLR8 (HEK293-derived reporter cells)
T1 sequence (Q9NR97 27-1041): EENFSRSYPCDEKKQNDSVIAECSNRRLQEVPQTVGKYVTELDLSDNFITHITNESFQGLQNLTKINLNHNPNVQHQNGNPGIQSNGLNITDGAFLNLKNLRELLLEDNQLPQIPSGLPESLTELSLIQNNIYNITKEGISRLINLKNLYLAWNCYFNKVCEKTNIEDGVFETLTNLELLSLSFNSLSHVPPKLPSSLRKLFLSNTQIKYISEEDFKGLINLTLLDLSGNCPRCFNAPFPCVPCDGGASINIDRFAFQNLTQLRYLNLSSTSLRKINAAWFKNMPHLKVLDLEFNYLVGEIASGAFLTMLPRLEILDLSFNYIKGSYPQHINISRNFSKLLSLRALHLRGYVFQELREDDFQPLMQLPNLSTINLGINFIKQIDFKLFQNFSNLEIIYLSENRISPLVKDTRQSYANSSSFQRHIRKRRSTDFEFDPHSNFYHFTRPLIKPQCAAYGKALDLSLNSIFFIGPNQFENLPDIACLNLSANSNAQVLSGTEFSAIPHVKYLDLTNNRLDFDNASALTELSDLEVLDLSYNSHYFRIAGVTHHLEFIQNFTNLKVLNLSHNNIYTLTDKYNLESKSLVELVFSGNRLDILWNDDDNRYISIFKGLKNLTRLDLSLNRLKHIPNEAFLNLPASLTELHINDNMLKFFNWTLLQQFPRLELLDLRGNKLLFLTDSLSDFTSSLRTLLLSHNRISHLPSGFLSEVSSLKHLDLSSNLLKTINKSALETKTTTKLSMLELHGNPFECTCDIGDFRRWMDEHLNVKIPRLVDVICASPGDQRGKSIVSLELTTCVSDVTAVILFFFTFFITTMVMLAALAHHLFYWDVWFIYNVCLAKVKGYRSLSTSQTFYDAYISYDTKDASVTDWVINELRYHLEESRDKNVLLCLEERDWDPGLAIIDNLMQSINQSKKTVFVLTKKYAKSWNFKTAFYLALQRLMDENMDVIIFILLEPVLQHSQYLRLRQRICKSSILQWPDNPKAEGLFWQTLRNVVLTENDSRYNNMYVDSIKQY
Briefly: HEK-Blue hTLR8 reporter assay (QUANTI-Blue, OD650). The settings on record: HEK-Blue hTLR8 cells, 24 h; class symbols; read-out: Reporter assay TLR8 EC50. Format: cell-based. The protocol:
In this example, the agonistic activity of the compounds of the present application on hTLR7 (human Toll-like receptor 7) and hTLR8 (human Toll-like receptor 8) was assessed; the induction activity of the compounds on human PBMCs for TNF-α and IFN-α production was assessed in human PBMCs (human peripheral blood mononuclear cells).
All compounds were formulated in DMSO into 30 mM stock solutions and preserved at 4° C. The reference compound ([…], Cat. No. tlrl-r848-5) was purchased from InvivoGen and formulated into a 5 mg/mL stock solution in DMSO and preserved in a freezer at −20° C. HEK-Blue hTLR7 and HEK-Blue hTLR8 cell lines were purchased from InvivoGen, and human PBMCs were purchased from Shanghai Saily Biotechnology Co., Ltd. (Cat. No. XFB—HP100B).
The major instruments used in this study were multifunctional microplate reader Flexstation III (Molecular Device), Envision (Perkin Elmer), M2e (Molecular Device), and Echo555 (Labcyte). 2.1 Agonistic activity of compounds on hTLR7 (human Toll-like receptor 7) and hTLR8 (human Toll-like receptor 8)
Compound dilution: The compounds of the present application are diluted in DMSO, for example, to about 15 mM. The reference compound was added to the plates in sequence after dilution. The compounds were serially 3-fold diluted to 10 concentrations and added to 96-well plates in duplicate.
For the negative control wells, DMSO was added at 0.2 μL/well, and the reference compound was added to the positive control wells. The final concentration of DMSO was 0.2%.
Cell plating: When an 80% confluence of HEK Blue hTLR7&8 cells in the culture flask was observed under a microscope, the culture medium was discarded, 10 mL of detection medium was added, and the cells were separated by pipetting. The cells were counted on a cytometer and diluted to 500,000 cells/mL. The cells were plated at 100 μL/50,000 cells/well in the 96-well plates containing the compounds. The compounds and cells were co-incubated at 37° C. in a 5% CO2 incubator for 24 hours.
Compound activity detection: 20 μL of cell supernatant was taken from each well and added to a plate containing QUANTI-Blue™ reagent at 180 μL/well. The plate was incubated at 37° C. for 1 hour, and the absorbance at 650 nm (OD650) was measured on the multifunctional microplate reader Flexstation III.
Compound activity data analysis: The OD650 values were analyzed by GraphPad Prism software and fitted to give dose-response curves of the compounds. The EC50 values of compounds were calculated.
Background: A reporter such as luciferase makes a cellular process visible.
On to `CCCN(OCc1ccc(N)cc1)C(=O)C1=Cc2ccc(-c3cncc(C(=O)O)c3)cc2N=C(N)C1` [Compound 32], for which the EC50 was 10 to 100 nM.

As for `CCCN(OCc1ccc(N)cc1)C(=O)C1=Cc2ccc(C(=O)N3CC(CO)C3)cc2N=C(N)C1` [Compound 37], the EC50 was 10 to 100 nM.

Regarding `CCCN(OCc1ccc(N)cc1)C(=O)C1=Cc2ccc(-c3ccc(C(=O)N4CC[C@@H](O)C4)cc3)cc2N=C(N)C1` [Compound 42], the concentration for a half-maximal effect (EC50) lay within 10 to 100 nM.

Turning to `CCCN(OCc1ccc(N)cc1)C(=O)C1=Cc2ccc(C(=O)N3CCC(O)C3)cc2N=C(N)C1` (stereo not shown) [Compound 46], the EC50 lay in the range of 10 to 100 nM.

Turning to `CCCN(OCc1ccc(N)cc1)C(=O)C1=Cc2ccc(C(=O)N3CCOC(CO)C3)cc2N=C(N)C1` (stereo not shown) [Compound 47], the EC50 is 10 to 100 nM.

In the case of `CCCN(OCc1ccc(N)cc1)C(=O)C1=Cc2ccc(C(=O)NCCO)cc2N=C(N)C1` [Compound 48], the EC50 lay within 10 to 100 nM.

As to `CCCN(OCc1ccc(N)cc1)C(=O)C1=Cc2ccc(-c3cncc(C(F)(F)F)c3)cc2N=C(N)C1` [Compound 53], the EC50 lay in the range of 10 to 100 nM.

With `NC1=Nc2cc(-c3cncc(CO)c3)ccc2C=C(C(=O)N(CCC(F)(F)F)OCc2ccc(N)cc2)C1` [Compound 58], the EC50 is not above 10 nM.

Regarding `CCCN(OCc1ccc(N)cc1Cl)C(=O)C1=Cc2ncc(-c3cncc(CO)c3)cc2N=C(N)C1` [Compound 59], the EC50 was not above 10 nM.

Regarding `CCCN(OCc1ccc(N)cc1OC)C(=O)C1=Cc2ncc(-c3cncc(CO)c3)cc2N=C(N)C1` [Compound 60], the EC50 is not above 10 nM.

Take `CCCN(OCc1ccc(N)cc1)C(=O)C1=Cc2ncc(-c3cncc(CO)c3)cc2N=C(N)C1` [Compound 61]: the EC50 is not above 10 nM.

Consider `CCCN(OCc1ccc(N)cc1)C(=O)C1=Cc2ccc(-c3cncc(CO)c3)nc2N=C(N)C1` [Compound 62], for which the EC50 was not above 10 nM.

Turning to `CCCN(OCc1ccc(N)cc1)C(=O)C1=Cc2ccc(-c3cnc4c(c3)C(=O)OC4)nc2N=C(N)C1` [Compound 63], the EC50 is not above 10 nM.

Consider `CCCN(OCc1ccc(N)cc1)C(=O)C1=Cc2ccc(-c3cccc(S(=O)(=O)NCCO)c3)cc2N=C(N)C1` [Compound 64], for which the EC50 is not above 10 nM.

On to `CCCN(OCc1ccc(N)cc1)C(=O)C1=Cc2ccc(-c3cccc(S(=O)(=O)N4CCC(O)CC4)c3)cc2N=C(N)C1` [Compound 66], for which the EC50 was not above 10 nM.

Regarding `CCCN(OCc1ccc(N)cc1)C(=O)C1=Cc2ccc(-c3cccc(S(=O)(=O)N4CCNCC4)c3)cc2N=C(N)C1` [Compound 67], the EC50 was not above 10 nM.

Consider `CCCN(OCc1ccc(N)cc1)C(=O)C1=Cc2ccc(-c3cccc(S(=O)(=O)N4CCOCC4)c3)cc2N=C(N)C1` [Compound 68], for which the concentration giving a half-maximal response (EC50) was not above 10 nM.

As to `CCCN(OCc1ccc(N)cc1)C(=O)C1=Cc2ccc(-c3cncc(S(=O)(=O)N4CCNCC4)c3)cc2N=C(N)C1` [Compound 69], the 50% effective concentration (EC50) is not above 10 nM.

For `CCCN(OCc1ccc(N)cc1)C(=O)C1=Cc2ccc(-c3cncc(S(=O)(=O)NCCO)c3)cc2N=C(N)C1` [Compound 70], the EC50 is not above 10 nM.

Take `CCCN(OCc1ccc(N)cc1)C(=O)C1=Cc2ccc(-c3cncc(S(=O)(=O)N4CCC(O)CC4)c3)cc2N=C(N)C1` [Compound 71]: the EC50 was not above 10 nM.

As to `CCCN(OCc1ccc(N)cc1)C(=O)C1=Cc2ccc(-c3cncc(S(=O)(=O)N4CC[C@H](O)C4)c3)cc2N=C(N)C1` [Compound 72], the EC50 is not above 10 nM.

With `CCCN(OCc1ccc(N)cc1)C(=O)C1=Cc2ccc(-c3cncc([S+](C)[O-])c3)cc2N=C(N)C1` (stereo not shown) [Compound 73], the EC50 is not above 10 nM.

Regarding `CCCN(OCc1ccc(N)cc1)C(=O)C1=Cc2ccc(C(=O)NC(C)(C)c3ccccc3)cc2N=C(N)C1` [Compound 76], the EC50 is not above 10 nM.

Consider `CCCN(OCc1ccc(N)cc1)C(=O)C1=Cc2ccc(C(=O)N[C@@H](C)c3ccccc3)cc2N=C(N)C1` [Compound 77], for which the EC50 is not above 10 nM.

For `CCCN(OCc1ccc(N)cc1)C(=O)C1=Cc2ccc(C(=O)N[C@H]3C[C@@H]3c3ccccc3)cc2N=C(N)C1` [Compound 78], the EC50 was not above 10 nM.

For the compound `CCCN(OCc1ccc(N)cc1)C(=O)C1=Cc2ccc(C(=O)NC3COC3)cc2N=C(N)C1` [Compound 81], the EC50 lay in the range of 10 to 100 nM.

Consider `CCCN(OCc1ccc(N)cc1)C(=O)C1=Cc2ccc(C(=O)NC3CCCCC3)cc2N=C(N)C1` [Compound 82], for which the EC50 was not above 10 nM.

Turning to `CCCN(OCc1ccc(N)cc1)C(=O)C1=Cc2ccc(C(=O)NC3CCOCC3)cc2N=C(N)C1` [Compound 84], the EC50 lay within 10 to 100 nM.

With `CCCN(OCc1ccc(N)cc1)C(=O)C1=Cc2ccc(C(=O)Nc3cncc(OC)c3)cc2N=C(N)C1` [Compound 85], the EC50 was not above 10 nM.

Staying with this assay, now noted: HEK-Blue hTLR8 cells, 24 h; read-out: Reporter assay TLR8 EC50.
For the compound `CCCN(OCc1ccc(N)cc1)C(=O)C1=Cc2ccc(-c3cncc(CO)c3)cc2N=C(N)C1` [Compound 15], the EC50 was less than 1.5 nM.

Regarding `CCCN(OCc1ccc(N)cc1)C(=O)C1=Cc2ccc(-c3cccc(S(N)(=O)=O)c3)cc2N=C(N)C1` [Compound 35], the EC50 was less than 1.5 nM.

For `CCCN(OCc1ccc(N)cc1)C(=O)C1=Cc2ccc(-c3cncc(S(N)(=O)=O)c3)cc2N=C(N)C1` [Compound 36], the EC50 was determined as 1.71 nM.

Take `CCCN(OCc1ccc(N)cc1)C(=O)C1=Cc2ccc(C(=O)Nc3cccnc3)cc2N=C(N)C1` [Compound 40]: the EC50 came out at 2.5 nM.

As to `CCCN(OCc1ccc(N)cc1)C(=O)C1=Cc2ccc(-c3cccc(S(=O)(=O)N4CC(O)C4)c3)cc2N=C(N)C1` [Compound 41], the EC50 came out at 5.37 nM.

`CCCN(OCc1ccc(N)cc1)C(=O)C1=Cc2ccc(-c3ccc4c(c3)C(=O)OC4)cc2N=C(N)C1` [Compound 43]: the EC50 is less than 1.5 nM.

For the compound `NC1=Nc2cc(-c3cncc(CO)c3)ccc2C=C(C(=O)N(CC2CC2)OCc2ccc(N)cc2)C1` [Compound 45], the EC50 came out at 2.3 nM.

With `CCCN(OCc1ccc(N)cc1)C(=O)C1=Cc2ccc(-c3cncc(Cl)c3)cc2N=C(N)C1` [Compound 49], the EC50 is 6.6 nM.

Regarding `CCCN(OCc1ccc(N)cc1)C(=O)C1=Cc2ccc(-c3cncc(C#N)c3)cc2N=C(N)C1` [Compound 50], the EC50 was found to be 1.5 nM.

For `CCCN(OCc1ccc(N)cc1)C(=O)C1=Cc2ccc(-c3ccc(C#N)nc3)cc2N=C(N)C1` [Compound 51], the EC50 worked out at 5.6 nM.

In the case of `CCCN(OCc1ccc(N)cc1)C(=O)C1=Cc2ccc(-c3cncc(N)c3)cc2N=C(N)C1` [Compound 52], the EC50 turned out to be 4.4 nM.

For `CCCN(OCc1ccc(N)cc1)C(=O)C1=Cc2ccc(-c3cncc(CN)c3)cc2N=C(N)C1` [Compound 54], the EC50 was less than 1.5 nM.

As for `CCCN(OCc1ccc(N)cc1)C(=O)C1=Cc2ccc(-c3ccc(N4CCOCC4)nc3)cc2N=C(N)C1` [Compound 55], the 50% effective concentration (EC50) came to 2.3 nM.

With `CCCN(OCc1ccc(N)cc1)C(=O)C1=Cc2ccc(-c3cncc(S(C)(=O)=O)c3)cc2N=C(N)C1` [Compound 56], the EC50 was less than 1.5 nM.

As usually defined, the EC50 is the concentration giving half of the maximal effect.
